Results taken from article PMC6756013, “B591, a novel specific pan-PI3K inhibitor, preferentially targets cancer stem cells” (Oncogene, 2019).

How the values were obtained:
[1] = system: PIP3/PI(4,5)P2 ratio in HCT116 cells; assay: Cellular PI3K kinase assay (PIP3 and PI(4,5)P2 ELISA); assay type: cell-based; settings: 10 h treatment
Method: Cells were seeded at density of 3 × 10^7 cells/150 mm dish. After treatment with different concentrations of B591 for 10 h, the media was removed and 10 ml of ice-cold 0.5 M TCA was immediately added. Incubate cells on ice for 5 min. Cells were scraped and centrifuged at 3000 rpm for 7 min at 4 ℃. The pellet was resuspended in 3 ml of 5% […] acid/1 mM EDTA, vortexed for 30 s, and centrifuged at 3000 rpm for 5 min. The supernatant was discarded and the cells was washed one more time. Afterward, neutral lipids were extracted adding 3 ml of MeOH:CHCl3 (2:1) and continuously vortexing for 10 min at room temperature. Extracts were centrifuged at 3000 rpm for 5 min, the supernatant was discarded, and this extraction step was repeated one more time. The acidic lipids were extracted adding 2.25 ml MeOH:CHCl3:12 M HCl (80:40:1) with continuous vortexing over 25 min at room temperature. Extracts were centrifuged at 3000 rpm for 5 min and the supernatant was transferred to a new 15 ml tube; 0.75 ml of CHCl3 and 1.35 ml of 0.1 M HCl were added to the supernatant, vortexed, and centrifuged at 3000 rpm for 5 min to separate organic and aqueous phases. […] Once phospholipids were isolated from cells, PIP3 and PI(4,5)P2 levels were measured using ELISA kits (Echelon, K-2500s and K4500) according to the manufacturer’s instructions.

[2] = system: SUM-159PT, MCF7 and MDA-MB-231 mammospheres; assay: Mammosphere formation assay; assay type: cell-based, human; settings: treated 5 days
Method: Fig. 4 B591 inhibits CSCs and tumorigenesis. a B591 inhibited mammosphere-formation of SUM-159PT, MCF7, and MDA-MB-231 cells. Mammospheres were cultured as described in Materials and methods section. […] The mammospheres were subsequently passaged for another two generations and each generation of the mammospheres were cultured for 5 days without B591 and then counted under a phase-contrast microscopy. The relative mammosphere-formation ability is shown as percentage, and data represent mean ± SD from three independent experiments. c, d Representative flow cytometry plots show the effect of B591 on CD44^high/CD24^low (c) and ALDH^high (d) breast CSCs population from SUM-159PT cells. e Quantification of flow cytometry analysis of CD44^high/CD24^low and ALDH^high breast CSCs population from SUM-159PT cells. […] The live cells were collected and counted, the same amount of control cells and B591-treated cells were then incubated into the fourth left and right mammary fat pad of mice, respectively, according the indicated number for each group. Tumors were inspected 3 months later, and the tumor initiating frequency (TIF) was calculated with ELDA software. […]
In mammosphere formation assay, mammospheres were cultured in the presence of B591 for 5 days as described above and then were counted and imaged under a phase-contrast microscopy (Nikon, Japan).

[3] = system: lung metastasis of 4T1 cells; assay: Breast cancer metastasis study; assay type: in vivo, NOD/SCID mice; settings: 8 mg/kg intraperitoneally once a day
Method: Studies implicated that the process termed EMT is associated with features of CSCs, which are considered to be involved in metastasis, a major cause of cancer-associated deaths. 4T1 murine mammary carcinoma cells spontaneously produce highly metastatic tumors that can metastasize to the lung, liver, lymph nodes, and brain while the primary tumor is growing in situ. To determine the efficacy of B591 on tumor metastasis, the metastasis model was established by incubating 4T1 cells into the mammary gland of NOD/SCID mice and treated with 8 mg/kg of B591 intraperitoneally once a day. B591 decreased more than 50% of the metastatic tumors in the lung which spontaneously metastasize from the primary tumor in the mammary gland (Fig. 6a).
To establish the metastasis model, 3 × 10^5 of 4T1 cells were incubated into the mammary fat pad of NOD/SCID mice. When tumor volume reached about 50 mm^3, mice were randomly divided into two groups for treatment with 8 mg/kg of B591 or vehicle (i.p.) for 2 months. The metastatic tumors in lung were stained with ink as previously reported.

[4] = system: MDA-MB-231 orthotopic xenografts; assay: MDA-MB-231 orthotopic xenograft; assay type: in vivo, NOD/SCID mice; settings: for Decrease of tumor burden (determined by volume): versus vehicle
Method: Then we evaluated the inhibitory effect of B591 on CSCs by in vivo xenograft assay (Fig. 5a). B591 (4 or 16 mg/kg) was given to the NOD/SCID mice bearing orthotopic xenografts of human breast cancer MDA-MB-231 cells for 2 weeks. […] The inhibition of PI3K/mTOR pathway by B591 in tumors was further confirmed by western blot analysis.
In MDA-MB-231 xenografts experiment, 1 × 10^6 cells were incubated into the mammary fat pad of mice orthotopically. When the volume of tumor reached above 50 mm^3, the mice were randomly divided into three groups for introperitoneal (i.p.) injection with vehicle, 4 mg/kg and 16 mg/kg B591. The tumor volume and the body weight of mice were measured during the 2-weeks treatment. In the end of treatment, the mice were killed, and the tumor tissues were dissected and dissociated into single cell suspension with Dispase II (Roche, Basel, Switzerland) according with the manufacture’s protocol. Then these single cells were used for CSCs phenotype assay, ALDH activity assay, mammosphere formation assay and limiting dilution assay in vivo as described above.

With Cc1cc2c(cc1C)[n+](Cc1ccccc1Br)cn2Cc1ccc2c(c1)CCO2.[Br-] [B591, 3-(2-bromobenzyl)-1-((2,3-dihydrobenzofuran-5-yl)methyl) -5,6-dimethyl-1H-benzo[d]imidazol-3-ium bromide] the “IC50 for decrease of PIP3/PI(4,5)P2 ratio” value [1] was 1910 nM, the “Size and number of primary mammospheres” value [2] was “reduced by B591 in a concentration-dependent manner” and the “Decrease of metastatic tumors in the lung” value [3] was “more than 50%”. The “Decrease of tumor burden (determined by volume)” value ([4]; 4 mg/kg i.p., 2 weeks) was 40%, the “Inhibition based on final tumor weights” value ([4]; 16 mg/kg i.p., 2 weeks) was 70.7% and the “Decrease of tumor burden (determined by volume)” value ([4]; 16 mg/kg i.p., 2 weeks) was 60%. For the same molecule, the Body weight ([4]; 4 or 16 mg/kg, 2 weeks) was “no significant body weight loss” and the “CD44high/CD24low and ALDHhigh breast CSCs populations in xenograft tumors” value ([4]; tumors dissociated at end of treatment) was “significantly reduced”.
